# Assay results published in US9809532B2, “Uses of histone acetyltransferase activators” (THE TRUSTEES OF COLUMBIA UNIVERSITY IN THE CITY OF NEW YORK, priority 2011, dated 2017).
# Key:
# [1] = precipitated as soon as put in H2O; cited from earlier work
# [2] = molecular target: T1, Sirtuin 1 (Homo sapiens, UniProt Q96EB6); experiment: Sirtuin 1 activity assay (fluorescence)
# T1 sequence (Q96EB6 1-747): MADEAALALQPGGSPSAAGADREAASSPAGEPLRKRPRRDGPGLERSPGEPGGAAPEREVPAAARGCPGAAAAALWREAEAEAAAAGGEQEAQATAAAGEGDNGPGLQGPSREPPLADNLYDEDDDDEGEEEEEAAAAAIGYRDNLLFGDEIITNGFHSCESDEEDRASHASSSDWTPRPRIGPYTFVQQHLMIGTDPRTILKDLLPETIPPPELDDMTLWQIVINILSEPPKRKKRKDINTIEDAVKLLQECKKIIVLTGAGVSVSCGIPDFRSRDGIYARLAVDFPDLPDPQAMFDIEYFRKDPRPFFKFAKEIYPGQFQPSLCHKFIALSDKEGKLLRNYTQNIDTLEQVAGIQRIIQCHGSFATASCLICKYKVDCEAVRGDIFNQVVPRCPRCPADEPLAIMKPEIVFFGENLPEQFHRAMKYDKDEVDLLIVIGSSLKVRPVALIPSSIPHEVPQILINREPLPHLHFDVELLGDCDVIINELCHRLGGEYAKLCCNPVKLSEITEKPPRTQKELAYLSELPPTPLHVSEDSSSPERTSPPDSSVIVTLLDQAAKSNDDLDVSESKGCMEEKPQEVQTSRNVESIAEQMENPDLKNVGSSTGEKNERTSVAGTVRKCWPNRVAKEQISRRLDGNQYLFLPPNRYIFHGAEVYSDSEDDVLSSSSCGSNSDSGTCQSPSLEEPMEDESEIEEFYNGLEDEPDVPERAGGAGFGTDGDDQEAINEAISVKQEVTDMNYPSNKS
# [3] = molecular target: T2, Sirtuin 2 (Homo sapiens, UniProt Q8IXJ6); experiment: Sirtuin 2 activity assay (fluorescence); conditions: Sirtuin 2
# T2 sequence (Q8IXJ6 1-389): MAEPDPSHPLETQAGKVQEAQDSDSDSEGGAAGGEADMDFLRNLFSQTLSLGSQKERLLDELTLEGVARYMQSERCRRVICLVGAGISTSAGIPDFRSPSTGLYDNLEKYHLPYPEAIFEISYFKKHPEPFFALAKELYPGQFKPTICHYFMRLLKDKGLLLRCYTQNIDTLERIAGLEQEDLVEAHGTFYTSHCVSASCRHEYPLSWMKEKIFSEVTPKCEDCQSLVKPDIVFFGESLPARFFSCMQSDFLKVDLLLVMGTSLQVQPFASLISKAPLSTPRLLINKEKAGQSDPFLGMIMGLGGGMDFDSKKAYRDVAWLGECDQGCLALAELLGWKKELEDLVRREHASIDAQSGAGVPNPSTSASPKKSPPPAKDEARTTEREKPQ
IC50 [2] [µM],IC50 [3] [µM],Structure (SMILES),solubility in water [1]
,,CCOc1ccccc1C(=O)Nc1ccc(Cl)c(C(F)(F)F)c1 [N-(4-chloro-3-trifluoromethyl-phenyl)-2-ethoxy-benzamide],very poorly solubile in water
> 10,> 10,"O=C(CCCCCCC(=O)Nc1ccccc1)NO [SAHA, reference compound]",
